Drawing on patent US20030229108A1, “Barbituric acid analogs as therapeutic agents” (priority 2000, published 2003), this text covers IC50 for 52 compounds.

Test [1] addresses T1, interaction between HIF-1α and p300 (His-HIF-1α / GST-p300) (Homo sapiens, UniProt Q09472+Q16665).
T1 construct: corresponding to the C-terminal 390 amino acids into vector pET28a; A plasmid containing the N-terminal 595 amino acids of human p300; made in house; host or cells: E. coli
In words: Primary assay: fluorescence-based (DELFIA) screening assay for inhibition of the HIF-1α/p300 interaction. The test is classed as binding. As for the experimental part:
Candidate compounds were assessed for their ability to inhibit the interaction between HIF-1α and p300 using a high throughput fluorescence-based screening assay (DELFIA) as follows.
A plasmid expressing His-HIF-1α fusion protein was constructed by PCR, by amplifying and subcloning a fragment of the human HIF-1α cDNA (NCBI GenBank, accession number AH006957) corresponding to the C-terminal 390 amino acids into vector pET28a (Novagen®, Madison, Wis., USA). A plasmid containing the N-terminal 595 amino acids of human p300 (NCBI GenBank, accession number U01877) inserted into vector pGEX2T (Pharmacia®, Little Chalfont, Bucks, UK) was used for the production of GST-p300 fusion protein. The recombinant proteins were produced in E. coli. His-HIF-1α was purified using Ni-NTA agarose beads, according to manufacture's method (Qiagen®, Crawley, West Sussex, UK). GST-p300 was purified using Glutathione-sepharose beads (Amersham Pharmacia®, Little Chalfont, Bucks, UK) according to manufacturer's instructions. A titration of every batch of p300 was carried out in order to determine the optimum dilution of the protein to obtain at least a 10:1 ratio signal to noise in the binding assay.
The assay was performed in 96-well Polysorb plates (Nalge Nunc International®, Rochester, N.Y., USA) as follows. Plates were coated with His-HIF-1α at 50 ng/well in […] and incubated overnight at 4° C. The plates were then washed 3 times with deionized water and blocked with 100 μL/well 3% BSA in PBS for 3 hours at 4° C. After washing 3 times as before, GST-p300 was added at the appropriate dilution (1:800 in this screening) in binding buffer (50 mM HEPES pH 7.5, 50 mM NaCl, 0.1% BSA, 0.5 mM DTT). The reaction was incubated at room temperature for 1 hour. Plates were washed 3 times and anti-GST Europium-conjugated antibody (from Wallac®, Turku, Finland) was added at 50 ng/well in […]. After 45 minutes incubation, plates were washed 3 times as before. Then, 100 μL/well enhancement solution (from Wallac®, Catalog No. 1244-105) was added and allowed to react for 15 minutes at room temperature. Plates were read on a Victor 2 plate reader (from Wallac®).

The test system of test [2] is VEGF promoter (VEGF-luciferase reporter) in Hepatoma 3B (hep3B) cells. In words: VEGF-luciferase cell-based reporter assay, desferoxamine-induced, Hepatoma 3B (hep3B) cells. Particulars: 15 h, read-out: Secondary Assay VEGF-luciferase IC50. The text has this:
This cell-based reporter assay involves the use of a luciferase reporter gene under the direct control of the VEGF promoter. Induction of HIF using desferoxamine leads to the transcription of luciferase through activation of the VEGF (Vascular Endothelial Growth Factor) promoter, which in turn leads to an increase in luciferase activity, which can be measured using most commercially available luciferase assay kits. Molecules that disrupt the HIF complex cause inhibition of HIF-dependent luciferase activation and lead to a reduction in luciferase activity. This assay allows the activity of the compounds to be assessed against the VEGF promoter, which is essential for VEGF production and subsequent angiogenesis.
Hepatoma 3B (hep3B) cells (ATCC Ref. No. HB-8064) were plated in 24-well plates at 2×10^4/well in 500 μL DMEM/10% FCS, and were transfected the following day using Fugene 6 (Roche Biochemicals®, Lewes, E. Sussex, UK). Transfection mixtures per well contained 6 μL 10% Fugene, 200 ng VEGF-luciferase reporter (rat VEGF promoter, NCBI GenBank, accession number U22373, Levy et al., 1995) and 2 ng TK-renilla (Promega®, Madison, Wis., USA) (for transfection efficiency control). Transfection was performed as recommended by manufacturer. Compounds were added the following day. After 1 hour incubation at 37° C., desferoxamine (Sigma®, Dorset, UK) was added at 100 μM to induce HIF activity. Duplicate wells without desferoxamine were run in parallel. Cells were harvested 15 hours later, and luciferase activity was measured using Dual Luciferase Assay System (Promega®, see also Technical Manual, Part #TM040, Instructions for Use of Products E1910 and E1960, revised May/1999).
A general note: A reporter such as luciferase makes a cellular process visible.

Setting [3] is: read-out: Primary Assay Inhibition IC50.

Where two headings read alike, the source gives them in different places.

T1 sequence (Q16665 437-826 limits assumed): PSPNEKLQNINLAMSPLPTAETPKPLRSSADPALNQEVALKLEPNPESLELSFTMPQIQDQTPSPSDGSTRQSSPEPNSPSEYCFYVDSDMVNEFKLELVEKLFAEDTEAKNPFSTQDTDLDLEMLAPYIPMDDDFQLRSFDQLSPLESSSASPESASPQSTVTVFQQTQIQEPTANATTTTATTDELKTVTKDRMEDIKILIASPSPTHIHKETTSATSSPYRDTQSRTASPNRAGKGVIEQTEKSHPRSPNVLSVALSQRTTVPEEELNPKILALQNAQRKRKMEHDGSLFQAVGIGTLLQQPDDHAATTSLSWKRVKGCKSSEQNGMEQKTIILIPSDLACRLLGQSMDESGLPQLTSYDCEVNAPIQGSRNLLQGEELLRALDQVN
T1 sequence (Q09472 1-595 limits assumed): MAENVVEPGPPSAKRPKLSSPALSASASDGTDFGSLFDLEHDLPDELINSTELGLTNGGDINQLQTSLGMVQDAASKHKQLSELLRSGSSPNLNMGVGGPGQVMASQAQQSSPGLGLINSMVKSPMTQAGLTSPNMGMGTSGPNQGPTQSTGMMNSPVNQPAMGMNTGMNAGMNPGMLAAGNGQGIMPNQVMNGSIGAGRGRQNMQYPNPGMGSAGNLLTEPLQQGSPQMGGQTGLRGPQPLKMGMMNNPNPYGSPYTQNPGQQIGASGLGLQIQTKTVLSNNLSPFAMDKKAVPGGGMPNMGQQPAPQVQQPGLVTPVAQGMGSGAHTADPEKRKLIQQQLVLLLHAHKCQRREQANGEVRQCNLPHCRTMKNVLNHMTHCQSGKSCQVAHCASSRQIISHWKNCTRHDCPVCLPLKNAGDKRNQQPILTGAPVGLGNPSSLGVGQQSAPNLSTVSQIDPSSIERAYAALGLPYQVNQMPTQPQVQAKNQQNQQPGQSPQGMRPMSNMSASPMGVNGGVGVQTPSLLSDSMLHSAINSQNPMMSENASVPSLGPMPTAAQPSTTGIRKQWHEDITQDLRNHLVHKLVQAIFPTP

In general, IC50 refers to the concentration that inhibits the measured activity by half. Compound `O=C1NC(=O)C(=C/C=C/c2ccccc2)C(=O)N1` [PX089370] gave an IC50 in test [1] of 225 µM.
Same read-out and setting: next, `O=C1NC(=O)C(=Cc2ccc(O)cc2)C(=O)N1` [PX089377]: 400 µM.
Consider `CN(C)c1ccc(C=C2C(=O)N(c3ccccc3)C(=S)N(c3ccccc3)C2=O)cc1[N+](=O)[O-]` [PX089626], for which the IC50 in test [2] came to 75 µM; in test [1] it was 40 µM.
`COc1cccc(C=C2C(=O)NC(=O)NC2=O)c1OC` [PX089371] came in with an IC50 in test [1] of 400 µM.
Still for that read-out and setting: next, `O=C1NC(=O)C(=Cc2ccc(O)c(O)c2)C(=O)N1` [PX089374]: 230 µM; `COc1ccc(OC)c(C=C2C(=O)NC(=O)NC2=O)c1` [PX075257]: 350 µM.
In the case of `COc1cccc(-c2nc3c(=N)n(-c4ccc(Cl)cc4)c(=O)[nH]c3c(=O)[nH]2)c1O` [P2081958], the IC50 in test [1] (setting [3]) was determined as 125 µM.
With `O=C1NC(=S)NC(=O)C1=Cc1c2ccccc2cc2ccccc12` [PX106031, 5-(Anthracen-9-ylmethylene)-2-thioxo-dihydro-pyrimidine-4,6-dione], the IC50 in test [2] worked out at 50 µM.
For `CCOc1ccccc1C=C1C(=O)NC(=O)NC1=O` [PX075248], the IC50 in test [1] was found to be 450 µM.
With `Cn1c(=O)[nH]c(=O)c2c1nc(N)n2CC(O)COc1ccc(Cl)cc1` (centres unmarked) [PX084819], the IC50 in test [2] was found to be 50 µM; in test [1] (setting [3]), 10 µM.
Compound `O=C1NC(=O)C(=CC2CC=CCC2)C(=O)N1` (centres unmarked) [PX089369] came in with an IC50 in test [1] of 225 µM.
In test [1], `CCOc1ccc(C=C2C(=O)NC(=O)NC2=O)cc1` [PX072012] registered an IC50 of 175 µM.
In the case of `COc1ccc(C=C2C(=O)NC(=S)NC2=O)cc1OC` [PX075262, 5-(3,4-Dimethoxy-benzylidene)-2-thioxo-dihydro-pyrimidine-4,6-dione], half-maximal inhibition in test [1] (IC50) was put at 65 µM.
Regarding `O=C1NC(=O)C(=Cc2c(F)cccc2Cl)C(=O)N1` [PX069119], 250 µM corresponded to half-maximal inhibition in test [1] (IC50).
Still for that read-out and setting: next, `O=C1NC(=O)C(=Cc2ccccc2Cl)C(=O)N1` [PX083677]: 400 µM; `O=C1NC(=O)C(=Cc2cccc(OCc3ccccc3)c2)C(=O)N1` [PX075245]: 125 µM.
The same measure, in the same setting: next, `O=C1NC(=O)C(=Cc2ccccc2)C(=O)N1` [PX089368]: 350 µM.
On the same count and under the same terms, next, `O=C1NC(=O)C(=Cc2ccc(Cl)cc2Cl)C(=O)N1` [PX089367]: 200 µM; `COc1ccc(C=C2C(=O)N(c3ccccc3)C(=S)N(c3ccccc3)C2=O)cc1OC` [PX089646]: 100 µM; `Cc1ccccc1N1C(=O)/C(=C/c2ccco2)C(=O)NC1=S` [PX106130]: 29 µM.
In the case of `COc1cccc(N2C(=O)/C(=C/c3ccsc3)C(=O)NC2=S)c1` [PX106287], the IC50 in test [2] came to 100 µM.
On to `CCN(CC)c1ccc(C=C2C(=O)N(c3ccccc3)C(=S)N(c3ccccc3)C2=O)cc1` [PX089647], for which the IC50 in test [1] was found to be 100 µM.
Turning to `O=C1NC(=S)NC(=O)C1=C/C=C/c1ccccc1` [PX072015, 5-(3-Phenyl-allylidene)-2-thioxo-dihydro-pyrimidine-4,6-dione], the IC50 in test [2] stood at 18 µM.
For `O=C1NC(=O)C(=C/C=N/Nc2ccccc2)C(=O)N1` [PX089620], the IC50 in test [1] was 80 µM.
Consider `O=C1NC(=S)NC(=O)C1=Cc1ccco1` [PX083634, 5-(Furan-2-ylmethylene)-2-thioxo-dihydro-pyrimidine-4,6-dione], for which the IC50 in test [2] is 50 µM; in test [1] it was 65 µM.
In the case of `COc1cc(C=C2C(=O)NC(=O)NC2=O)c([N+](=O)[O-])cc1OCc1ccccc1` [PX069153], in test [1], the IC50 came to 200 µM.
As to `COc1ccc(OC)c(N2C(=O)/C(=C/c3ccco3)C(=O)NC2=S)c1` [PX106274], 29 µM corresponded to half-maximal inhibition in test [1] (IC50).
As to `N=c1c2nc(-c3ccccc3)[nH]c(=O)c2[nH]c(=O)n1-c1ccccc1` [P2082132], the IC50 in test [1] (setting [3]) worked out at 125 µM.
For `Cc1cc(C=C2C(=O)NC(=S)NC2=O)c(C)n1-c1sc2c(c1C#N)CCCC2` [PX106174], the 50% inhibitory concentration (IC50) in test [1] is 43 µM.
Still for that read-out and setting: under `O=C1NC(=S)NC(=O)C1=C/C=N/Nc1ccccc1` [PX089619] stands 180 µM; under `COc1ccc(C=C2C(=O)NC(=O)NC2=O)cc1OC` [PX072004], 250 µM.
Regarding `CCOc1ccc(Br)cc1C=C1C(=O)NC(=S)NC1=O` [PX089633], the IC50 is 50 µM in test [2] and 70 µM in test [1].
Consider `O=C1NC(=S)NC(=O)C1=Cc1ccc(/C=C/c2ccccc2)cc1` [px106027, 5-(4-Styryl-benzylidene)-2-thioxo-dihydro-pyrimidine-4,6-dione], for which the IC50 in test [2] was determined as 75 µM.
`O=C1NC(=S)N(c2ccc(F)cc2)C(=O)/C1=C/c1ccc2c(c1)OCO2` [PX106255]: the IC50 in test [1] stood at 3 µM.
Take `N=c1c2nc(-c3ccc4c(c3)OCO4)[nH]c(=O)c2[nH]c(=O)n1-c1ccc(Cl)cc1` [P2082202]: the IC50 in test [1] (setting [3]) amounted to 250 µM.
Take `COc1ccc(-c2nc3c(=N)n(-c4cccc(C(F)(F)F)c4)c(=O)[nH]c3c(=O)[nH]2)cc1OC` [P2082229]: the IC50 in test [1] (setting [3]) turned out to be 125 µM.
As for `O=C1NC(=S)N(c2ccc(Cl)cc2)C(=O)/C1=C/C=C/c1ccco1` [PX106291], the midpoint of inhibition in test [1], the IC50, lay at 80 µM.
Take `O=C1NC(=O)C(=Cc2ccc(Cl)c(Cl)c2)C(=O)N1` [PX072002]: the IC50 in test [1] worked out at 225 µM.
Same read-out and setting: next, `O=C1NC(=S)NC(=O)C1=Cc1ccc(Cl)cc1` [PX089640, 5-(4-Chloro-benzylidene)-2-thioxo-dihydro-pyrimidine-4,6-dione]: 100 µM.
Take `Cn1c(=O)c2c(ncn2CC(O)CN2CCN(c3cccc(Cl)c3)CC2)n(C)c1=O` (centres unmarked) [P2082796]: the IC50 in test [1] (setting [3]) came out at 150 µM.
`COc1ccc(C=C2C(=O)NC(=O)NC2=O)cc1` [PX089375] registered an IC50 in test [1] of 200 µM.
With `Cc1cc2nc3c(=O)[nH]c(=O)nc-3n(CC(O)C(O)C(O)CO)c2cc1C` (centres unmarked) [P2083033], in test [2], the IC50 came to 20 µM.
In the case of `COc1ccc(-c2nc3c(=N)n(-c4ccc(Cl)cc4)c(=O)[nH]c3c(=O)[nH]2)cc1` [PX081770], the IC50 in test [1] (setting [3]) came to 125 µM.
For `COc1ccc(C=C2C(=O)NC(=S)NC2=O)cc1OCc1ccccc1` [PX105990, 5-(3-Benzyloxy-4-methoxy-benzylidene)-2-thioxo-dihydro-pyrimidine-4,6-dione], 20 µM corresponded to half-maximal inhibition in test [1] (IC50).
Same read-out and setting: next, `COc1ccccc1C=C1C(=O)NC(=S)NC1=O` [PX105993, 5-(2-Methoxy-benzylidene)-2-thioxo-dihydro-pyrimidine-4,6-dione]: 80 µM; `O=C1NC(=O)C(=Cc2cccc(O)c2)C(=O)N1` [PX089376]: 200 µM; `CC(=O)Nc1ccc(C=C2C(=O)NC(=S)NC2=O)cc1` [PX089632, N-[4-(4,6-Dioxo-2-thioxo-tetrahydro-pyrimidin-5-ylidenemethyl)-phenyl]-acetamide]: 15 µM.
The compound `COc1ccc(C=C2C(=O)NC(=O)NC2=O)c(Cl)c1OC` [PX074728] registered an IC50 in test [1] of 125 µM.
Same read-out and setting: next, `O=C1NC(=O)C(=Cc2ccc3c(c2)OCO3)C(=O)N1` [PX075240]: 100 µM; `O=C1NC(=S)NC(=O)C1=Cc1cccs1` [PX089638]: 130 µM.
On the same count and under the same terms, next, `O=C1NC(=S)N(c2ccc(F)cc2)C(=O)/C1=C/c1ccc(-c2ccc(Cl)c(C(=O)O)c2)o1` [PX106244]: 40 µM.
For `COc1cc(C=C2C(=O)NC(=O)NC2=O)ccc1O` [PX072008], the half-maximal inhibitory concentration (IC50) in test [1] was 300 µM.
